Measured values reported in patent US5006533A, “Certain 3-bromo-2,6-dimethoxybenzamides and pharmaceutical use thereof” (Boehringer Ingelheim GmbH, priority 1986, dated 1991).
Structures can show the parent of a compound that is named as a salt.

Legend:
[1] = tested on: rhesus monkeys sensitised with haloperidol; experiment: dyskinesia in rhesus monkeys sensitised with haloperidol; type: in vivo, rhesus monkey; settings: for Dyskinesia threshold dose p.o.: rhesus monkeys sensitised with haloperidol; for Dyskinesia index I:II: ratio of climbing test ED50 (I) to dyskinesia threshold dose (II)
From the text: The dyskinetic effects are among the most disturbing side effects of neuroleptic drugs. These include Parkinsonian manifestations such as tremor, rigidity and akinesia but also dyskinesia in the mouth-tongue-pharynx region.
The investigation of such symptoms in an animal model is possible using rhesus monkeys sensitised with haloperidol. After being given neuroleptic drugs, which have extrapyramidal motor effects in humans, these animals show typical dyskinesia in the mouth and tongue region (according to J. Liebmann and R. Neale, Psychopharmacology 68, 25-29 (1980) modified).

[2] = tested on: apomorphine climbing, mouse; experiment: apomorphine climbing test on the mouse; type: in vivo; settings: after 1 h
LD50 (mouse) p.o. = settings: in vivo, po

Structure (SMILES) | Dyskinesia threshold dose p.o. [1] | Dyskinesia index I:II [1] | ED50 [2] | LD50 (LD50 (mouse) p.o.)
COc1ccc(Br)c(OC)c1C(=O)NC1CC2CC(O)C(C1)N2Cc1ccc(F)cc1 (stereo not drawn) [X = F, N-[8-(4-Fluorobenzyl)-6-hydroxy-3-nortropanyl]-2,6-dimethoxy-3-bromobenzamide-hydrochloride] | 8 mg/kg | 0.078 | 0.63 mg/kg | –
COc1ccc(Br)c(OC)c1C(=O)NC1CC2CC(O)C(C1)N2Cc1ccc(Cl)cc1 (racemic) [X = Cl, N-[8-(4-Chlorobenzyl)-6-hydroxy-3-nortropanyl]-2,6-dimethoxy-3-bromobenzamide-hydrochloride] | 30 mg/kg | 0.028 | 0.85 mg/kg | > 1000 mg/kg
COc1ccc(Br)c(OC)c1C(=O)NC1CC2CC(O)C(C1)N2Cc1ccccc1 (stereo not drawn) [X = H, N-(8-Benzyl-6-hydroxy-3-nortropanyl)-2,6-dimethoxy-3-bromobenzamide fumarate] | > 15 mg/kg | < 0.08 | 1.2 mg/kg | ~300 mg/kg
COc1ccc(Br)c(OC)c1C(=O)NC1CC2CCC(C1)N2Cc1ccccc1 (stereo not drawn) [A, N-(8-benzyl-3-nortropanyl)-2,6-dimethoxy-3-bromobenzamide, reference compound] | 10 mg/kg | 0.18 | 1.8 mg/kg | ~300 mg/kg
